How the values were obtained:
HCV GT1a replicon cells = assay: HCV Replicon assay, GT1a replicon cells (Luciferase / NEO qPCR); type: cell-based; conditions: Hepatitis C virus, 72 hours incubation, read-out: EC50 against HCV 1a genotype
Procedure: (§1) An HCV Replicon assay was utilized in the present invention, and was prepared, developed and validated as described in Science, 1999, 285 (5424), 110-3 and J. Virol., 2003, 77 (5), 3007-19.
(§2) HCV GT1a, GT1b and GT2a replicon cells were used to test the currently described compound series as well as wild-type cells HCV 1b and resistant cells Y93H, L31F, P32L and 1302V. […]
(§3) The GT1a cells and GT1b cells were seeded into 96-well plates (8,000 cells in 125 μL/well) respectively; each compound was diluted to desired concentration using 5-fold serial dilutions protocol, 10 doses in duplicate, and added to wells with POD™ 810 Plate Assembler. The final concentration of DMSO was 0.5%; the plates were incubated in a CO2 incubator for 72 hours; after that, 40 μL of Luciferase assay substrate (Promega Bright-Glo) was added to each well, and detected by a chemiluminescence detection system (Topcount Microplate Scintillation and Luminescence Counter) 5 minutes later; data analysis.
(§4) The GT1a cells and GT1b cells were seeded into 96-well plates (8,000 cells in 125 μL/well) respectively; each compound was diluted to desired concentration using 5-fold serial dilutions protocol, 10 doses in duplicate, and added to wells with POD™ 810 Plate Assembler., the final concentration of DMSO was 0.5%; the cells were incubated in a CO2 incubator for 72 hours; quantitative PCR. • Sample preparation: the supernatant was removed, 100 μL of FCW buffer solution was added to each well, washed carefully and discarded the solution; 50 μL of lysate FCP was added to each well, the cells was lysed as PCR template and PCR template was diluted with DEPC water as sample template. • Quantitative PCR: preparation of reaction mixture according to PCR system; the reaction mixture was dispensed into a 384-well PCR reaction plate (specially for quantitative); and a standard template which was diluted in proportion was distributed into the plate; and the sample template was distributed into the plate; then the 384-well plate was sealed with closure plate membrane; the […] PCR machine was operated by procedures; data analysis. 3. Data Processing: the EC50 Values of Compounds were Analyzed by GraphPad Prism Software.

HCV GT1b replicon cells = assay: HCV Replicon assay, GT1b replicon cells (Luciferase / NEO qPCR); type: cell-based; conditions: Hepatitis C virus, 72 hours incubation, read-out: EC50 against HCV 1b genotype
Procedure: as §1, §2, §3, §4

With `COC(=O)N[C@H](C(=O)N1C[C@@H](C)C[C@H]1c1nc(-c2ccc(-c3ccc(-c4ccc5nc([C@@H]6C[C@H](C)CN6C(=O)[C@@H](NC(=O)OC)C(C)C)[nH]c5c4)c4c3C3(CCCC3)CC4)cc2)c[nH]1)C(C)C` [Example 16] the EC50 (HCV GT1a replicon cells) was 0.008 nM and the EC50 (HCV GT1b replicon cells) was 0.005 nM.

`COC(=O)N[C@H](C(=O)N1C[C@@H](F)C[C@H]1c1ncc(-c2ccc(-c3ccc(-c4cnc([C@@H]5C[C@H](F)CN5C(=O)[C@@H](NC(=O)OC)C(C)C)[nH]4)c4c3C3(CCCC3)CC4)cc2)[nH]1)C(C)C` [Example 17] showed an EC50 (HCV GT1a replicon cells) of 0.475 nM and an EC50 (HCV GT1b replicon cells) of 0.072 nM.

`C=C([C@@H](NC(=O)OC)C(C)C)N1CC(C)(C)C[C@H]1c1ncc(-c2ccc(-c3ccc(-c4cnc([C@@H]5CC(C)(C)CN5C(=O)[C@@H](NC(=O)OC)C(C)C)[nH]4)cc3)c3c2CCC32CCCC2)[nH]1` [Example 18] showed an EC50 (HCV GT1a replicon cells) of 0.458 nM and an EC50 (HCV GT1b replicon cells) of 0.203 nM.

`COC(=O)N[C@H](C(=O)N1CCC[C@H]1c1ncc(-c2ccc(-c3ccc(-c4ccc5nc([C@@H]6CCCN6C(=O)[C@@H](NC(=O)OC)c6ccccc6)[nH]c5c4)c4c3C3(CCCC3)CC4)cc2)[nH]1)c1ccccc1` [Example 19] was tested, and the EC50 (HCV GT1a replicon cells) was 0.376 nM and the EC50 (HCV GT1b replicon cells) was 0.011 nM.

Compound `COC(=O)N[C@H](C(=O)N1CCC[C@H]1C(=O)Nc1ccc(-c2ccc(-c3ccc(NC(=O)[C@@H]4CCCN4C(=O)[C@@H](NC(=O)OC)C(C)C)cc3)c3c2CCC32CCCC2)cc1)C(C)C` [Example 20] has an EC50 (HCV GT1a replicon cells) of 5.9 nM and an EC50 (HCV GT1b replicon cells) of 1.03 nM.

`COC(=O)N[C@H](C(=O)N1C[C@@H](C)C[C@H]1c1nc(-c2ccc(-c3ccc(-c4ccc(-c5c[nH]c([C@@H]6C[C@H](C)CN6C(=O)[C@@H](NC(=O)OC)C(C)C)n5)cc4)c4c3CCC43CCCC3)cc2)c[nH]1)C(C)C` [Example 21] gave an EC50 (HCV GT1a replicon cells) of 4.88 nM and an EC50 (HCV GT1b replicon cells) of 0.98 nM.

For `COC(=O)N[C@H](C(=O)N1CC2(CC2)C[C@H]1c1ncc(-c2ccc(-c3ccc(-c4ccc(-c5cnc([C@@H]6CC7(CC7)CN6C(=O)[C@@H](NC(=O)OC)C(C)C)[nH]5)cc4)c4c3CCC43CCCC3)cc2)[nH]1)C(C)C` [Example 22], the EC50 (HCV GT1a replicon cells) was 3.65 nM and the EC50 (HCV GT1b replicon cells) was 0.876 nM.

With `COC(=O)N[C@H](C(=O)N1C2CC2C[C@H]1c1ncc(-c2ccc(-c3ccc(-c4ccc(-c5cnc([C@@H]6CC7CC7N6C(=O)[C@@H](NC(=O)OC)C(C)C)[nH]5)cc4)c4c3CCC43CCCC3)cc2)[nH]1)C(C)C` (some centres unmarked) [Example 23] the EC50 (HCV GT1a replicon cells) was 0.334 nM and the EC50 (HCV GT1b replicon cells) was 0.012 nM.

`CCC(C)[C@H](NC(=O)OC)C(=O)N1C2CC2C[C@H]1c1ncc(-c2ccc(-c3ccc(-c4ccc(-c5cnc([C@@H]6CC7CC7N6C(=O)[C@@H](NC(=O)OC)C(C)CC)[nH]5)cc4)c4c3CCC43CCCC3)cc2)[nH]1` (some centres unmarked) [Example 24] gave an EC50 (HCV GT1a replicon cells) of 2.69 nM and an EC50 (HCV GT1b replicon cells) of 0.055 nM.

Work on `COC(=O)N[C@H](C(=O)N1C2CCC(C2)[C@H]1c1ncc(-c2ccc(-c3ccc(-c4cnc([C@@H]5C6CCC(C6)N5C(=O)[C@@H](NC(=O)OC)C(C)C)[nH]4)c4c3C3(CCCC3)CC4)cc2)[nH]1)C(C)C` (some centres unmarked) [Example 25] yielded an EC50 (HCV GT1a replicon cells) of 10.7 nM and an EC50 (HCV GT1b replicon cells) of 0.032 nM.

`COC(=O)N[C@H](C(=O)N1CCCC[C@H]1c1ncc(-c2ccc(-c3ccc(-c4cnc([C@@H]5CCCCN5C(=O)[C@@H](NC(=O)OC)C(C)C)[nH]4)c4c3C3(CCCC3)CC4)cc2)[nH]1)C(C)C` [Example 26] was tested, and the EC50 (HCV GT1a replicon cells) was 13.7 nM and the EC50 (HCV GT1b replicon cells) was 0.088 nM.

For `COC(=O)N[C@@H](C)C(=O)N1CCCC[C@H]1c1ncc(-c2ccc(-c3ccc(-c4cnc([C@@H]5CCCCN5C(=O)[C@H](C)NC(=O)OC)[nH]4)c4c3C3(CCCC3)CC4)cc2)[nH]1` [Example 27], the EC50 (HCV GT1a replicon cells) was 12.7 nM and the EC50 (HCV GT1b replicon cells) was 0.655 nM.

`COC(=O)N[C@H](C(=O)N1CCS[C@H]1c1ncc(-c2ccc(-c3ccc(-c4cnc([C@@H]5SCCN5C(=O)[C@@H](NC(=O)OC)C(C)C)[nH]4)c4c3C3(CCCC3)CC4)cc2)[nH]1)C(C)C` [Example 28] was tested, and the EC50 (HCV GT1a replicon cells) was 4.57 nM and the EC50 (HCV GT1b replicon cells) was 0.667 nM.

For `COC(=O)N[C@H](C(=O)N1CCC[C@H]1c1ncc(-c2ccc(-c3ccc(-c4ccc5nc([C@@H]6CCCN6C(=O)[C@@H](NC(=O)OC)C(C)C)[nH]c5c4)cc3)c3c2CCC32CCCC2)[nH]1)C(C)C` [Example 29], the EC50 (HCV GT1a replicon cells) was 8.68 nM and the EC50 (HCV GT1b replicon cells) was 0.218 nM.

`COC(=O)N[C@H](C(=O)N1CCC[C@H]1c1ncc(-c2ccc3cc(-c4ccc(-c5cnc([C@@H]6CCCN6C(=O)[C@@H](NC(=O)OC)C(C)C)[nH]5)c5c4C4(CCCC4)CC5)ccc3c2)[nH]1)C(C)C` [Example 30] gave an EC50 (HCV GT1a replicon cells) of 3.2 nM and an EC50 (HCV GT1b replicon cells) of 0.074 nM.

`COC(=O)N[C@H](C(=O)N1CCC[C@H]1c1ncc(-c2ccc(-c3ccc(-c4cnc([C@@H]5CC6(CN5C(=O)[C@@H](NC(=O)OC)C(C)C)OCCO6)[nH]4)c4c3C3(CCCC3)CC4)cc2)[nH]1)C(C)C` [Example 31] was tested, and the EC50 (HCV GT1a replicon cells) was 4.68 nM and the EC50 (HCV GT1b replicon cells) was 0.048 nM.

Source: patent publication US20150232509A1, “SPIRO RING COMPOUNDS AS HEPATITIS C VIRUS (HCV) INHIBITORS” (SUNSHINE LAKE PHARMA CO., LTD., priority 2012, published 2015)
